Numbers after ± are expanded uncertainties.
Experiment: xn = mol fraction of the nth substance listed
Conditions: 293.15 K, Liquid, Vibrating tube method

C=C(C)C(=O)OCCN(C)C [2-(dimethylamino)ethyl methylpropenoate] + CCCCO
mass density [kg/m3]
Conditions	100 kPa	5000 kPa	10000 kPa	15000 kPa	20000 kPa	25000 kPa
x1 = 0.0301	817.21 ± 0.52	820.9 ± 0.52	824.39 ± 0.53	827.71 ± 0.54	830.88 ± 0.56	833.94 ± 0.57
x1 = 0.06	824.09 ± 0.52	827.83 ± 0.52	831.32 ± 0.53	834.6 ± 0.54	837.73 ± 0.55	840.76 ± 0.56
x1 = 0.1005	833.13 ± 0.52	836.85 ± 0.52	840.32 ± 0.53	843.61 ± 0.54	846.74 ± 0.55	849.77 ± 0.56
x1 = 0.1995	852.44 ± 0.52	856.11 ± 0.52	859.55 ± 0.53	862.82 ± 0.54	865.96 ± 0.55	869 ± 0.56
x1 = 0.2993	868.71 ± 0.52	872.37 ± 0.53	875.83 ± 0.53	879.12 ± 0.54	882.28 ± 0.55	885.36 ± 0.55
x1 = 0.4005	882.69 ± 0.52	886.4 ± 0.53	889.87 ± 0.53	893.17 ± 0.54	896.32 ± 0.54	899.39 ± 0.55
x1 = 0.4521	889.04 ± 0.52	892.7 ± 0.53	896.14 ± 0.53	899.43 ± 0.54	902.58 ± 0.54	905.66 ± 0.55
x1 = 0.499	894.3 ± 0.52	897.94 ± 0.53	901.38 ± 0.53	904.66 ± 0.54	907.82 ± 0.55	910.91 ± 0.55
x1 = 0.5494	899.59 ± 0.52	903.22 ± 0.53	906.66 ± 0.53	909.96 ± 0.54	913.14 ± 0.54	916.24 ± 0.55
x1 = 0.5994	904.39 ± 0.53	908.07 ± 0.53	911.52 ± 0.54	914.8 ± 0.54	917.94 ± 0.54	921.02 ± 0.55
x1 = 0.7005	913.06 ± 0.53	916.73 ± 0.53	920.19 ± 0.54	923.49 ± 0.54	926.66 ± 0.55	929.77 ± 0.55
x1 = 0.7989	920.53 ± 0.53	924.22 ± 0.54	927.7 ± 0.54	931.01 ± 0.55	934.2 ± 0.55	937.32 ± 0.55
x1 = 0.8992	927.17 ± 0.54	930.88 ± 0.54	934.38 ± 0.55	937.71 ± 0.55	940.93 ± 0.55	944.08 ± 0.56
x1 = 0.9293	928.88 ± 0.54	932.61 ± 0.54	936.14 ± 0.55	939.5 ± 0.55	942.75 ± 0.55	945.91 ± 0.56
x1 = 0.9592	930.67 ± 0.54	934.41 ± 0.54	937.96 ± 0.55	941.35 ± 0.55	944.61 ± 0.56	947.78 ± 0.56
